Results reported in patent publication US12583861B2, “Derivatives of imidazo[4,5-d]pyridazine, their preparation and their therapeutic application” (SANOFI, priority 2021, dated 2026).
Where a name gives a salt, the structure may show the parent alone.

What was measured:
human TLR7 = target: T1, human TLR7 (Homo sapiens, UniProt Q9NYK1); assay: HEK-Blue hTLR7 reporter cell assay (SEAP, NF-kB/AP-1) for stimulation of human TLR7; assay type: cell-based; conditions: HEK-Blue hTLR7 cells; for EC50: 24 h incubation, SEAP readout, read-out: TLR7_EC50
T1 construct: host or cells: HEK293 (HEK-Blue hTLR7)
T1 sequence (Q9NYK1 27-1049): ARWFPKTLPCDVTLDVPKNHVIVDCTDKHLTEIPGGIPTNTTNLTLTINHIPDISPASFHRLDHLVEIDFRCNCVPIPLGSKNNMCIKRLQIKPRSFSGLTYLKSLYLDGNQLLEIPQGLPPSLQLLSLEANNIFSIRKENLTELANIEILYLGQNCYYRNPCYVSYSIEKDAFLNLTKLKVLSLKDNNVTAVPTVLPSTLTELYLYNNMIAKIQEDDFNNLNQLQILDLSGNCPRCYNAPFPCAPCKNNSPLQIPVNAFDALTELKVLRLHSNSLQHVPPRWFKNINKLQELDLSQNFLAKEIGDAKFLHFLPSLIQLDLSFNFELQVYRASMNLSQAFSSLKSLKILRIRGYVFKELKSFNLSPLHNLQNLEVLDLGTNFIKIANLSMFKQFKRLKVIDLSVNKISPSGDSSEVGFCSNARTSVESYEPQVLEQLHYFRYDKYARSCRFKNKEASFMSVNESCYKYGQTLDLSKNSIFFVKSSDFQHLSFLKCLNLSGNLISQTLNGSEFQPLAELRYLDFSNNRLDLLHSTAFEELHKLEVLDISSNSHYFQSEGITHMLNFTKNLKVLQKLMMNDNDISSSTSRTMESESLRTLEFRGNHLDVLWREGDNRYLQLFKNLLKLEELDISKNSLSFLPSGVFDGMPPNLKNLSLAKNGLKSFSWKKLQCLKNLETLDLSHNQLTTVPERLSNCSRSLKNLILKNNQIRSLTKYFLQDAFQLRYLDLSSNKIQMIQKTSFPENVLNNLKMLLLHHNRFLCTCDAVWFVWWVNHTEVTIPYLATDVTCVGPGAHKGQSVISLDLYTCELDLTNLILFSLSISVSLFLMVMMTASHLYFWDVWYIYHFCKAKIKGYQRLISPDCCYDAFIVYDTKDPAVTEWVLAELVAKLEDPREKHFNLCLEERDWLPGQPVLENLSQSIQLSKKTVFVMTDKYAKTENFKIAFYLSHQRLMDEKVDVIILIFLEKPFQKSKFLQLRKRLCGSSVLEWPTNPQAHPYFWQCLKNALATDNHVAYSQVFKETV
Experimental: (§1) The below tests, involving measuring the in vitro activity of some compounds of the disclosure on TLR7 and TLR8, were carried out using the HEK-Blue™ cells as reporter.
The activity described below, with respect to TLR7, TLR8, IFN-α2a, IL-6, IL29 and TNF-α, is given by the half maximal effective concentration (EC50), which corresponds to the concentration required to obtain a 50% of the activation. The lower the EC50, the less the concentration of the compound is required to produce 50% of maximum activation and the higher the potency.
(§2) In Vitro Assay for Studying the Stimulation of Human TLR7 and TLR8:
(§3) HEK-Blue™ hTLR7 Cells (#hkb-htlr7) and HEK-Blue™ hTLR8 Cells (#hkb-htlr8) from InvivoGen were used according to the manufacturer's instructions. These Reporter HEK293 cells were obtained by co-transfection of the hTLR7 or TLR8 gene and an optimized Secreted Embryonic Alkaline Phosphatase (SEAP) reporter gene which is placed under the control of the IFN-β minimal promoter fused to five NF-κB and AP-1-binding sites. Stimulation with a TLR7/8 ligand activates NF-kB and AP-1 which induce the production of SEAP. The cells are seeded in 96-well plate at 3.10E4 cells/well and incubated 18 to 24 h at 37° C., 5% CO2 before adding the compounds to evaluate. The cells are subsequently incubated with 3-fold serial dilutions of each of the compounds (0.01 to 20 μM) for 24 hours at 37° C., 5% CO2. Next, 20 μL of the supernatant is harvested and incubated with 200 μL of QUANTI-Blue™ Solution.

human TLR8 = target: T2, human TLR8 (Homo sapiens, UniProt Q9NR97); assay: HEK-Blue hTLR8 reporter cell assay (SEAP, NF-kB/AP-1) for stimulation of human TLR8; assay type: cell-based; conditions: HEK-Blue hTLR8 cells; for EC50: 24 h incubation, SEAP readout, read-out: TLR8_EC50
T2 construct: host or cells: HEK293 (HEK-Blue hTLR8)
T2 sequence (Q9NR97 27-1041): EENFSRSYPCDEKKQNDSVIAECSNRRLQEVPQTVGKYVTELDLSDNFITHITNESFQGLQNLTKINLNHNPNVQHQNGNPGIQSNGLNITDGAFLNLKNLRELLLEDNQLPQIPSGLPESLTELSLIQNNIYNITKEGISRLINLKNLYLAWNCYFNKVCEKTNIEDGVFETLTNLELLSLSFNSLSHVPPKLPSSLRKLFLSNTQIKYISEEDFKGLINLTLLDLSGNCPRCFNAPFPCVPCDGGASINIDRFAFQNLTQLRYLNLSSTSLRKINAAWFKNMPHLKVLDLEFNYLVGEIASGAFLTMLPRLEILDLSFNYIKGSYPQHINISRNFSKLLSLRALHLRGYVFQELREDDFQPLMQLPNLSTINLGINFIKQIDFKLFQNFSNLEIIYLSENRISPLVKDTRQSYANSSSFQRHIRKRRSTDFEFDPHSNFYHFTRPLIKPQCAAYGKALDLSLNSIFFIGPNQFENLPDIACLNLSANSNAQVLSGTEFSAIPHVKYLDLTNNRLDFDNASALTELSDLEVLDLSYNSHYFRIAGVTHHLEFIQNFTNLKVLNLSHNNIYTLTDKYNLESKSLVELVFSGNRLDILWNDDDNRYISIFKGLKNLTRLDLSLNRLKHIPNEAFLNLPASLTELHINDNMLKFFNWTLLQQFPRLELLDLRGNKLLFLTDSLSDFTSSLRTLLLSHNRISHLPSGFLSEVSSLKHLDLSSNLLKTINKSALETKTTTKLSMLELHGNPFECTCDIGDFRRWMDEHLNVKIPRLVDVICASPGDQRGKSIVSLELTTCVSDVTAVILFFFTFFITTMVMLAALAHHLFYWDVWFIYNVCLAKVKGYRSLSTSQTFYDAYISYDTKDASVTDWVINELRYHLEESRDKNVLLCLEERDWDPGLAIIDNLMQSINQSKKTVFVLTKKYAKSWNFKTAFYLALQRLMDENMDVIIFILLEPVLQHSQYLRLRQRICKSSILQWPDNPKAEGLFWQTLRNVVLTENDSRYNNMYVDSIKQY
Experimental: as §1, §2
as §3, with “The cells are subsequently incubated with 3-fold serial dilutions of each of the compounds (0.01 to 20 μM) for 24 hours at 37° C., 5% CO2.” left out

| SMILES | EC50 (human TLR7) | EC50 (human TLR8) | activation at 20 µM (human TLR7; 24 h, at 20000 nM) | activation at 20 µM (human TLR8; 24 h, at 20000 nM) |
| --- | --- | --- | --- | --- |
| CCCCc1nc2c(N)nnc(OC(C)C)c2n1CCCCCCN [Compound 146, 3-(6-aminohexyl)-2-butyl-4-isopropoxy-imidazo[4,5-d]pyridazin-7-amine dihydrochloride salt] | 191 nM | > 20000 nM | – | – |
| CCCCc1nc2c(N)nnc(-c3cc[nH]c3)c2n1C[C@H]1CC[C@H](N)CC1 [Compound 141, 1-(((1R,4R)-4-aminocyclohexyl)methyl)-2-butyl-7-(1H-pyrrol-3-yl)-1H-imidazo[4,5-d]pyridazin-4-amine] | – | – | 26.8% | 19.6% |
| CCCCc1nc2c(N)nnc(OC(C)C)c2n1Cc1ccc(CNC2(C)CCC2)cc1 [Compound 39, 2-butyl-7-isopropoxy-1-(4-(((1-methylcyclobutyl)amino)methyl)benzyl)-1H-imidazo[4,5-d]pyridazin-4-amine] | 17 nM | 401 nM | – | – |
| CCCCc1nc2c(N)nnc(NC(C)C)c2n1C [Compound 88, 2-butyl-N7-isopropyl-1-methyl-1H-imidazo[4,5-d]pyridazine-4,7-diamine] | 2980 nM | 13600 nM | – | – |
| CCCCc1nc2c(N)nnc(OC3CCS(=O)(=O)C3)c2n1Cc1ccc(OC)cc1 (stereo not shown) [Compound 68, 3-((4-amino-2-butyl-1-(4-methoxybenzyl)-1H-imidazo[4,5-d]pyridazin-7-yl)oxy)tetrahydrothiophene 1,1-dioxide] | 4770 nM | > 20000 nM | – | – |
| CCCCc1nc2c(N)nnc(OC(C)C)c2n1Cc1ccc(CNC2CS(=O)(=O)C2)cc1 [Compound 37, 3-((4-((4-amino-2-butyl-7-isopropoxy-1H-imidazo[4,5-d]pyridazin-yl)methyl)benzyl)amino)thietane 1,1-dioxide] | 317 nM | > 20000 nM | – | – |
| CCCCc1nc2c(N)nnc(OC(C)C)c2n1Cc1cccc(CNC2(C)CCC2)c1 [Compound 130, 2-butyl-7-isopropoxy-1-(3-(((1-methylcyclobutyl)amino)methyl)benzyl)-1H-imidazo[4,5-d]pyridazin-4-amine dihydrochloride salt] | 76 nM | 1060 nM | – | – |
| CCCCCCC(=O)NCc1ccc(Cn2c(CCCC)nc3c(N)nnc(OC(C)C)c32)cc1 [Compound 84, N-(4-((4-amino-2-butyl-7-isopropoxy-1H-imidazo[4,5-d]pyridazin-1-yl)methyl)benzyl)heptanamide] | 263 nM | 1810 nM | – | – |
| CCCCc1nc2c(N)nnc(OC(C)C)c2n1Cc1cccc(CN2CCNCC2)c1 [Compound 131, 2-butyl-7-isopropoxy-1-(3-(piperazin-1-ylmethyl)benzyl)-1H-imidazo[4,5-d]pyridazin-4-amine] | 607 nM | > 20000 nM | – | – |
| CCCCCCNCc1ccc(Cn2c(CCCC)nc3c(N)nnc(OC(C)C)c32)cc1 [Compound 109, 2-butyl-1-(4-((hexylamino)methyl)benzyl)-7-isopropoxy-1H-imidazo[4,5-d]pyridazin-4-amine] | 50 nM | 243 nM | – | – |
| CCCCc1nc2c(N)nnc(OC(C)C)c2n1Cc1ccc(CNC(C)C)cc1 [Compound 83, 2-butyl-7-isopropoxy-1-(4-((isopropylamino)methyl)benzyl)-1H-imidazo[4,5-d]pyridazin-4-amine dihydrochloride] | 8 nM | 637 nM | – | – |
| CCCCc1nc2c(N)nnc(N3CCC(c4ccc(CO)cc4)C3)c2n1C (stereo not shown) [Compound 85, (4-(1-(4-amino-2-butyl-1-methyl-1H-imidazo[4,5-d]pyridazin-7-yl)pyrrolidin-3-yl)phenyl)methanol hydrochloride] | 606 nM | 3100 nM | – | – |
| CCCCc1nc2c(N)nnc(OC(C)C)c2n1Cc1ccc(CNC(=O)OCc2ccc(OC)cc2)cc1 [Compound 112, 4-methoxybenzyl (4-((4-amino-2-butyl-7-isopropoxy-1H-imidazo[4,5-d]pyridazin-1-yl)methyl)benzyl)carbamate] | 248 nM | > 20000 nM | – | – |
| CCCCc1nc2c(N)nnc(C3CCOC3)c2n1Cc1ccc(OC)cc1 (stereo not shown) [Compound 59, 2-butyl-1-(4-methoxybenzyl)-7-(tetrahydrofuran-3-yl)-1H-imidazo[4,5-d]pyridazin-4-amine] | 943 nM | > 20000 nM | – | – |
| CCCCc1nc2c(N)nnc(OC(C)C)c2n1Cc1ccc(CNC2CCOCC2)cc1 [Compound 82, 2-butyl-7-isopropoxy-1-(4-(((tetrahydro-2H-pyran-4-yl)amino)methyl)benzyl)-1H-imidazo[4,5-d]pyridazin-4-amine hydrochloride] | 13 nM | 303 nM | – | – |
| CCCCc1nc2c(N)nnc(OC(C)C)c2n1Cc1ccc(CNC(=O)NCC)cc1 [Compound 113, 1-(4-((4-amino-2-butyl-7-isopropoxy-1H-imidazo[4,5-d]pyridazin-1-yl)methyl)benzyl)-3-ethylurea] | 120 nM | > 20000 nM | – | – |
| CCCCc1nc2c(N)nnc(OC3CCOC3)c2n1Cc1ccc(OC)cc1 (stereo not shown) [Compound 56, 2-butyl-1-(4-methoxybenzyl)-7-((tetrahydrofuran-3-yl)oxy)-1H-imidazo[4,5-d]pyridazin-4-amine] | 231 nM | > 20000 nM | – | – |
